Laboratory results taken from patent publication US11479784B2, “Modulation of seed vigor” (Syngenta Participations AG, priority 2012, dated 2022).

What was measured:
seeds of A12 = experiment: Sensitivity to low temperatures during germination on paper, pretreatment in GA3 solution; assay type: in vivo, Brassica oleracea; settings: pretreatment 10 d 10 C. in the light in 1 mM GA3, then non-germinated seeds 5 days at 20° C. in the light
Procedure: (§1) Two replicates of 50 seeds per treatment were incubated at 5° C. or 10° C. in the light as described before for a germination test on paper. Incubation was in water or in a 1 mM solution of GA3. After 10 days seeds that had germinated were removed. The boxes with the remaining non-germinated seeds were then placed at 20° C. in the light. After a further 5 days the number of germinated seeds was counted. As a comparison seeds of both A12 and SL101 were germinated at 20° C. in the light without a pretreatment. Germination percentage of these seeds was counted after 10 days.

seeds of SL101 = experiment: as above; assay type: in vivo, Brassica oleracea
Procedure: as §1

Measured: Percentage of germination of seeds

C=C1C[C@]23C[C@@]1(O)CC[C@H]2[C@@]12C=C[C@H](O)[C@@](C)(C(=O)O1)[C@H]2[C@@H]3C(=O)O [GA3]
100%: seeds of A12 | seeds of SL101; pretreatment 10 d 5 C. in the light in 1 mM GA3, then non-germinated seeds 5 days at 20° C. in the light | seeds of SL101; pretreatment 10 d 10 C. in the light in 1 mM GA3, then non-germinated seeds 5 days at 20° C. in the light
